Patent US11117918B2, “Enzyme-directed immunostimulant and uses thereof” (Washington State University, priority 2016, dated 2021)

System: RAW-Blue cells
Assay: Inverse RAW-Blue assay after conversion by α-Mannosidase or AT3B-1 cells
Format: cell-based
Experimental: α-Mannosidase from Canavalia ensiformis (Jack bean) was used directly from the bottle to make a 1 U/mL stock solution in DPBS. Before administering the enzyme, the solution was filtered through a sterile 0.2 μm syringe filter to yield the working stock solution. 20 μL of the working stock solution was added to wells requiring exogenous enzyme to achieve a 0.1 U/mL α-Mannosidase concentration.
For inverse RAW-Blue assays, pro-immunostimulant (12) was first converted to Imiquimod by either exogenous α-Mannosidase (0.1 U/well) or via AT3B-1 cell metabolism prior to RAW-Blue exposure. To accomplish this, pro-immunostimulant (12) and controls were dosed at a concentration 10× the desired concentration to be administered to immune cells. For instance, to investigate the effects on RAW-Blue stimulation of a 10 μM dose of pro-immunostimulant […] the following steps would be taken: First, in an optically clear bottomed 96-well plate, wells were prepared to contain 180 μL of complete AT3B-1 cell media (without doxorubicin) and either α-Mannosidase or the desired AT3B-1 cell density (cells were given a minimum of 60 mins to adhere). Second, a 100 μM dose of (12) in DPBS was administered to the wells and total well volumes were adjusted to 200 μL with complete cell media (without doxorubicin). Cells were incubated (37° C., 5% CO2) for 24-72 h. […]

**Q.** CC(C)Cn1cnc2c(NC(=O)OCc3ccc(O[C@H]4O[C@H](CO)[C@@H](O)[C@H](O)[C@@H]4O)c([N+](=O)[O-])c3)nc3ccccc3c21 [compound 12] was tested. Which “immunogenicity (RAW-Blue activation)” value (10 μM, exogenous α-Mannosidase and AT3B-1 driven conversion to Imiquimod) did it give?
**A.** confers immunogenicity

**Q.** And the RAW-Blue activity (without a conversion driver)?
**A.** abrogated activity
